From article PMC6327044, “A chemical biology screen identifies a vulnerability of neuroendocrine cancer cells to SQLE inhibition” (Nature Communications, 2019) come the findings set out here.

Common to all, as to assay: cells
Parameters in all cases: species or system panel of 482 human cancer cell lines; ATPLite luminescence growth inhibition after treatment, nine-point dilution curve, 482 cancer cell lines, 384-well
Common to all, as to details: 72 h, recommended growth medium

The subject of assay [1] is U2932_HAEMATOPOIETIC_AND_LYMPHOID_TISSUE. Summed up:
(§1)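 Growth inhibition was measured across a panel of 482 cancer cell lines. Cells were plated at 500 cells per well in recommended growth media in black, tissue culture treated 384-well plates, centrifuged to equilibrate, and incubated 24 h before dosing. Compounds were tested as nine-point dilution curves for 72 h, with viability read by ATPLite luminescence relative to DMSO-treated controls.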

In assay [2] the test system is SUDHL5_HAEMATOPOIETIC_AND_LYMPHOID_TISSUE. In outline:
as §1

The test system of another assay is HCC1500_BREAST. In outline:
as §1

The next assay deals with EVSAT_BREAST. Summed up: as §1
The test system of a further assay is MORCPR_LUNG. Summed up:
as §1

For a further assay, the system named is NCIH2405_LUNG. In outline: as §1
Another assay has as its system SKBR3_BREAST. Summed up:
as §1

The subject of another assay is NCIH1666_LUNG. Summed up: as §1
The test system of another assay is NCIH2110_LUNG. Summed up: as §1
Another assay concerns FARAGE_NS. Summed up:
as §1

The test system of the next assay is JHH5_LIVER. In outline:
as §1

The test system of assay [3] is CAL33_UPPER_AERODIGESTIVE_TRACT. In outline: as §1
The subject of another assay is SNU175_LARGE_INTESTINE
Summed up:
as §1

In another assay the test system is SNU16_STOMACH. Summed up:
as §1

Assay [4] deals with KPNRTBM1_AUTONOMIC_GANGLIA. In outline: as §1
For assay [5], the system named is KMS34_HAEMATOPOIETIC_AND_LYMPHOID_TISSUE. In outline: as §1
The test system of another assay is MKN45_STOMACH. Summed up:
as §1

Molecules are shown by their SMILES.

Take `CCN(C/C=C/C#CC(C)(C)C)Cc1cccc(OCc2cc(-c3ccsc3)cs2)c1` [NB-598]: the GI50 in [1] stood at 1290 nM; in assay [2], 25.5 nM; in the assay with HCC1500_BREAST it was 1480 nM; in the assay on EVSAT_BREAST it was 32.4 µM; in the assay on MORCPR_LUNG it was 2690 nM; with NCIH2405_LUNG, 39.4 nM. The GI50 with SKBR3_BREAST was 7.19 µM; with NCIH1666_LUNG it was 24.9 nM; with NCIH2110_LUNG it was 36.2 µM; with FARAGE_NS, 14.2 nM; in the assay on JHH5_LIVER it was 42.7 µM; in assay [3] it was 42.5 nM. The GI50 in the assay on SNU175_LARGE_INTESTINE was 243 nM; in the assay with SNU16_STOMACH, 27.3 nM; in assay [4] it was 3.49 µM; in assay [5], 2070 nM; in the assay with MKN45_STOMACH it was 605 nM.
